The numbers were not newly measured in patent US20220290237A1, “METHOD FOR PREDICTING THE RESPONSE OF ANTIPSYCHOTIC DRUGS” (INSERM (INSTITUT NATIONAL DE LA SANTÉ ET DE LA RECHERCHE …, priority 2019, published 2022), which cites them from elsewhere.

For this data set the following is noted: first episode psychosis patients; cited from earlier work.

Each structure is given as a SMILES string.

With `Cc1cc2c(s1)Nc1ccccc1N=C2N1CCN(C)CC1` [olanzapine, 2-méthyl-4-(4-méthyl-1-pipérazinyl)-10H-thiéno[2,3-b][1,5]benzodiazepine], the “outcome after change from amisulpride to olanzapine” value is “did not improve outcome for most of the patient”.
